Source: patent US12187773B2, “Modified GIP peptide analogues” (Antag Therapeutics ApS, priority 2018, dated 2025)
Read-outs that look alike come from different tables or passages of the source. *1 amine or outer side, *2 acyl side, *3 side chain or, on linkers, in order; H or OH if unused. Where a SMILES comes first, the peptide text is derived from it. Side-chain parts run from the residue outwards. [ ]: non-standard residue; d: D form. The star is where a group is joined. C18 diacid = O=C(O)CCCCCCCCCCCCCCCCC(=O)*; C16 diacid = O=C(O)CCCCCCCCCCCCCCC(=O)*; γGlu = O=C(O)[C@H](CCC(=O)[*:2])N[*:1]; pGlu = O=C1CC[C@@H](C(=O)O)N1; AEEA = NCCOCCOCC(=O)O

How the values were obtained:
[1] = target: T1, human GIP receptor (Homo sapiens, UniProt P48546); experiment: cAMP antagonism (CisBio cAMP Dynamic 2 HTRF assay); format: cell-based; design: pCMV-Script vector
T1 sequence (P48546 22-466): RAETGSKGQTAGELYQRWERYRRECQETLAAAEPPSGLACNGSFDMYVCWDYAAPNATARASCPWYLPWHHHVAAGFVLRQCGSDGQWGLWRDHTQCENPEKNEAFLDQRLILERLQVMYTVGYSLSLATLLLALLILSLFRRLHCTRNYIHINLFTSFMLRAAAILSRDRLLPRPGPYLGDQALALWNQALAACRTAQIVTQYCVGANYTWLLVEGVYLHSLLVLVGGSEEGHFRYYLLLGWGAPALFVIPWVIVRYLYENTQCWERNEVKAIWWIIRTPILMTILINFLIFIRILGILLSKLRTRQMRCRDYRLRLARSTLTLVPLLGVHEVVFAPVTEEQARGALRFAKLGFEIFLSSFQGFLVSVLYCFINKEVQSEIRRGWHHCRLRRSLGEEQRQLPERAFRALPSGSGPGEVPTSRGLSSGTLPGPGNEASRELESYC
Method in brief: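 Four-parameter fits of cAMP dose-response gave pIC50. cAMP fall was quantified by HTRF competition, ratio 665/620 nm after 60 min at room temperature, against a cAMP standard curve.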

[2] = Elimination half-life (T1/2) estimated in Göttingen minipigs; format: in vivo
Protocol: 2-3 Göttingen minipigs were subcutaneously administered one of the GIP analogues of the present invention (1-10 nmol/kg, total volume 2-6 mL) and blood samples were collected before and up to 432 hours post subcutaneous administration.) from a central venous catheter. The catheter was flushed with saline and heparin between samples. Blood was collected into cold EDTA tubes, centrifuged and plasma was kept at −20° C. pending analyses.
Concentrations of the acylated GIP(3-30)NH2 or GIP(5-30)NH2 analogues in blood samples from Göttingen minipigs were analyzed by RIA. Analogues' immunoreactivity was determined using antiserum Ab95234, Ab95235, Ab95236, a polyclonal in-house antibody raised in rabbits specific for either the mid region of GIP(1-30)NH2 or amidated C-terminus of GIP(3-30)NH2.
In addition to the hormone analysis, blood concentrations of AT374, 380, 382-385, 392-393 were determined by LC/MS performed by Red Glead Discovery AB, Lund, Sweden. The plasma samples were precipitated by addition of 3 parts ethanol followed by thorough mixing. After centrifugation and dilution of the supernatant, the samples were analyzed by LC-MS/MS and compared with a 9-point calibration curve. The calibration curves were prepared in naïve plasma matrix from Göttingen minipigs.

[3] = target: T1, human GIP receptor; experiment: cAMP accumulation, antagonism (DiscoveRx HitHunter cAMP XS assay); format: cell-based; design: host or cells: COS-7 (transient, calcium phosphate; pCMV-Script vector); conditions: for cAMP antagonism, % inhib: % inhibition of Emax
Method in brief: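 Transiently transfected COS-7 cells expressing human GIP receptor, pretreated with 1 mM IBMX in HBS 30 min at 37 °C. Agonism: ligand 30 min at 37 °C; antagonism: 10 min antagonist preincubation, then GIP at 50-80% maximal response for 20 min. cAMP measured by HitHunter cAMP XS.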

[4] = target: T1, human GIP receptor; experiment: cAMP accumulation, agonism (DiscoveRx HitHunter cAMP XS assay); format: cell-based; design: host or cells: COS-7 (transient, calcium phosphate; pCMV-Script vector); conditions: Table 1B; DiscoveRx; COS-7 cells
Method in brief: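 cAMP accumulation measured by HitHunter cAMP XS in COS-7 cells transiently expressing human GIP receptor, after 30 min in HBS with 1 mM IBMX at 37 °C. Antagonists preincubated 10 min before GIP giving 50-80% of maximum, then 20 min more; agonist mode used 30 min ligand exposure.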

[5] = target: T1, human GIP receptor; experiment: cAMP agonism (CisBio cAMP Dynamic 2 HTRF assay); format: cell-based; conditions: for Emax: HEK293, read-out: cAMP agonism, % Efficacy, Table 1C, HEK-293 cells
Protocol: To test for agonistic properties at the GIP receptor, compounds were diluted and added to cells as described above and incubated for 30 min at 37° C. The resulting increase in intracellular cAMP was determined using the CisBio cAMP Dynamic 2 HTRF Assay Kit as described above.

[6] = target: T2, GLP1 receptor (GLP1R) (Homo sapiens, UniProt P43220); experiment: cAMP assay - selectivity, antagonism at GLP1 receptor; format: cell-based; conditions: Table 3A; COS-7 cells; agonist GLP1 at 50-80% of maximal cAMP
T2 construct: expressed in transfected cells; host or cells: COS-7 (transient)
T2 sequence (P43220 24-463, species assumed): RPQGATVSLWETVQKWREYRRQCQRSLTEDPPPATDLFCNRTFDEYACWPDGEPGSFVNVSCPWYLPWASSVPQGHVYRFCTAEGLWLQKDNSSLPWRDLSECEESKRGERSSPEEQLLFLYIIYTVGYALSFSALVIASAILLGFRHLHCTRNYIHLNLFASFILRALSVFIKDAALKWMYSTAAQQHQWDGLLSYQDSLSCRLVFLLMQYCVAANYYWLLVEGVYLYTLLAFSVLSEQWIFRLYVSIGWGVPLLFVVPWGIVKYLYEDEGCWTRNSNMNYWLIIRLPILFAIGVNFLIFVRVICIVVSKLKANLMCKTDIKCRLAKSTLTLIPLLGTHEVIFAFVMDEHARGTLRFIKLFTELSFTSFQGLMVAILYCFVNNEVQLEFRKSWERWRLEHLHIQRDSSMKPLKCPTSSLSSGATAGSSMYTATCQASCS
Protocol: Transient transfected COS-7 cells expressing the either of the GLP1 receptor (GLP1R), GLP2 receptor (GLP2R), glucagon receptor (GcgR) or secretin receptor (SCTR) were seeded in white 96-well plates with a density of 3.5*10^4/well. The day after, the cells were washed twice with Hepes buffered saline (HBS) buffer and incubated with HBS and 1 mM 3-isobutyl-1-methylxanthine (IBMX) for 30 min at 37° C. To test for agonistic properties, ligands were added and incubated for 30 min at 37° C. In order to test for antagonistic properties, the cells were preincubated with the antagonists for 10 min prior to the addition the natural agonist for the expressed receptor (GLP1 for GLP1R expressing cells, GLP2 for GLP2R expressing cells, glucagon for the GcgR and secretin for the SCTR) and subsequent incubated for 20 additional min. […] The HitHunter™ cAMP XS assay (DiscoveRx) was carried out according to the manufacturer's instructions.

[7] = Table 1C, CisBio, HEK-293 cells
[8] = cAMP antagonism, nM (IC50), Table 1C, CisBio, HEK-293 cells, agonist GIP1-42 at EC50
[9] = sc, Table 1B, species not given, unit h, LC/MS in Göttingen minipig plasma for these IDs, subcutaneous 1-10 nmol/kg, read-out: T½ (converted)
[10] = Table 1B, DiscoveRx, COS-7 cells
[11] = Göttingen, minipig, plasma, subcutaneous, Example 1, read-out: T1/2 (converted)
[12] = cAMP antagonism, nM (IC50), Table 1B, DiscoveRx, transiently transfected COS-7 cells

Row | SMILES | cAMP antagonism, % inhib [1, 7] [%] | IC50 [1, 8] [nM] | half-life [2, 9] [h] | IC50 ([3]; IC50-value (GIPR antagonism), Examples 1 and 2, values of Tables 1B and 2) [nM] | cAMP antagonism, % inhib [3, 10] [%] | cAMP agonism, Emax [4] | Emax [5] [%] | half-life [2, 11] [h] | IC50 [3, 12] [nM] | GLP-1R, Antagonism, nM [6] | IC50 ([1]; GIPR, Antagonism, nM, Table 3C, CisBio assay) [nM] | GIPR, Antagonism, % inhib ([1]; Table 3C, CisBio assay) [%] | GIPR, Antagonism, % inhib ([3]; Table 3A/3B, DiscoveRx, COS-7 cells) [%] | cAMP agonism, % Efficacy ([5]; Table 1C, HEK-293 cells) [%]
1 | CC[C@H](C)[C@H](NC(=O)[C@H](CO)NC(=O)[C@H](Cc1ccc(O)cc1)NC(=O)[C@H](CC(=O)O)NC(=O)[C@H](CO)NC(=O)[C@@H](NC(=O)[C@H](Cc1ccccc1)NC(=O)[C@@H](NC(=O)CNC(=O)[C@@H](N)CCC(=O)O)[C@@H](C)O)[C@@H](C)CC)C(=O)N[C@@H](C)C(=O)N[C@@H](CCSC)C(=O)N[C@@H](CC(=O)O)C(=O)N[C@@H](CCCNC(=N)N)C(=O)N[C@H](C(=O)N[C@@H](CCCCNC(=O)COCCOCCNC(=O)COCCOCCNC(=O)CC[C@H](NC(=O)CCCCCCCCCCCCCCC(=O)O)C(=O)O)C(=O)N[C@@H](CCC(N)=O)C(=O)N[C@@H](CCC(N)=O)C(=O)N[C@@H](CC(=O)O)C(=O)N[C@@H](Cc1ccccc1)C(=O)N[C@H](C(=O)N[C@@H](CC(N)=O)C(=O)N[C@@H](Cc1c[nH]c2ccccc12)C(=O)N[C@@H](CC(C)C)C(=O)N[C@@H](CC(C)C)C(=O)N[C@@H](C)C(=O)N[C@@H](CCC(N)=O)C(=O)N[C@@H](CCCNC(=N)N)C(N)=O)C(C)C)[C@@H](C)CC [AT374] (H-EGTFISDYSIAMDRIK([AEEA-AEEA-γGlu-C16 diacid])QQDFVNWLLAQR-NH2; N-terminus assumed) | 86 | 17.1 | 14 | 12 | 100 | No Agonism | 0 |  |  |  |  |  |  | 
2 | CC[C@H](C)[C@H](NC(=O)[C@H](CO)NC(=O)[C@H](Cc1ccc(O)cc1)NC(=O)[C@H](CC(=O)O)NC(=O)[C@H](CO)NC(=O)[C@@H](NC(=O)[C@H](Cc1ccccc1)NC(=O)[C@@H](NC(=O)CNC(=O)[C@@H]1CCC(=O)N1)[C@@H](C)O)[C@@H](C)CC)C(=O)N[C@@H](C)C(=O)N[C@@H](CCSC)C(=O)N[C@@H](CC(=O)O)C(=O)N[C@@H](CCCNC(=N)N)C(=O)N[C@H](C(=O)N[C@@H](CCCCNC(=O)COCCOCCNC(=O)COCCOCCNC(=O)COCCOCCNC(=O)CC[C@H](NC(=O)CCCCCCCCCCCCCCC(=O)O)C(=O)O)C(=O)N[C@@H](CCC(N)=O)C(=O)N[C@@H](CCC(N)=O)C(=O)N[C@@H](CC(=O)O)C(=O)N[C@@H](Cc1ccccc1)C(=O)N[C@H](C(=O)N[C@@H](CC(N)=O)C(=O)N[C@@H](Cc1c[nH]c2ccccc12)C(=O)N[C@@H](CC(C)C)C(=O)N[C@@H](CC(C)C)C(=O)N[C@@H](C)C(=O)N[C@@H](CCC(N)=O)C(=O)N[C@@H](CCCNC(=N)N)C(N)=O)C(C)C)[C@@H](C)CC [AT380] ([pGlu]GTFISDYSIAMDRIK([AEEA-AEEA-AEEA-γGlu-C16 diacid])QQDFVNWLLAQR-NH2) | 82 | 85.8 | 20 |  | 100 | No Agonism | 8 | 20 | 7 |  |  |  |  | 
3 | CC[C@H](C)[C@H](NC(=O)[C@H](CO)NC(=O)[C@H](Cc1ccc(O)cc1)NC(=O)[C@H](CC(=O)O)NC(=O)[C@H](CO)NC(=O)[C@@H](NC(=O)[C@H](Cc1ccccc1)NC(=O)[C@@H](NC(=O)CNC(=O)[C@@H](N)CO)[C@@H](C)O)[C@@H](C)CC)C(=O)N[C@@H](C)C(=O)N[C@@H](CCSC)C(=O)N[C@@H](CC(=O)O)C(=O)N[C@@H](CCCNC(=N)N)C(=O)N[C@H](C(=O)N[C@@H](CCCCNC(=O)CCCCCCCCCCCCCCC(=O)O)C(=O)N[C@@H](CCC(N)=O)C(=O)N[C@@H](CCC(N)=O)C(=O)N[C@@H](CC(=O)O)C(=O)N[C@@H](Cc1ccccc1)C(=O)N[C@H](C(=O)N[C@@H](CC(N)=O)C(=O)N[C@@H](Cc1c[nH]c2ccccc12)C(=O)N[C@@H](CC(C)C)C(=O)N[C@@H](CC(C)C)C(=O)N[C@@H](C)C(=O)N[C@@H](CCC(N)=O)C(=O)N[C@@H](CCCNC(=N)N)C(N)=O)C(C)C)[C@@H](C)CC [AT392] (H-SGTFISDYSIAMDRIK(C16 diacid)QQDFVNWLLAQR-NH2; N-terminus assumed) | 96 | 68.1 | 6 |  | 93 | No Agonism |  | 6 | 1 | No antagonism | 68.1 | 96 | 93.0 | 0
4 | CC[C@H](C)[C@H](NC(=O)[C@H](CO)NC(=O)[C@H](Cc1ccc(O)cc1)NC(=O)[C@H](CC(=O)O)NC(=O)[C@H](CO)NC(=O)[C@@H](NC(=O)[C@H](Cc1ccccc1)NC(=O)[C@@H](NC(=O)CNC(=O)[C@@H](N)CCC(=O)O)[C@@H](C)O)[C@@H](C)CC)C(=O)N[C@@H](C)C(=O)N[C@@H](CCSC)C(=O)N[C@@H](CC(=O)O)C(=O)N[C@@H](CCCNC(=N)N)C(=O)N[C@H](C(=O)N[C@@H](CCCCNC(=O)COCCOCCNC(=O)COCCOCCNC(=O)CC[C@H](NC(=O)CCCCCCCCCCCCCCCCC(=O)O)C(=O)O)C(=O)N[C@@H](CCC(N)=O)C(=O)N[C@@H](CCC(N)=O)C(=O)N[C@@H](CC(=O)O)C(=O)N[C@@H](Cc1ccccc1)C(=O)N[C@H](C(=O)N[C@@H](CC(N)=O)C(=O)N[C@@H](Cc1c[nH]c2ccccc12)C(=O)N[C@@H](CC(C)C)C(=O)N[C@@H](CC(C)C)C(=O)N[C@@H](C)C(=O)N[C@@H](CCC(N)=O)C(=O)N[C@@H](CCCNC(=N)N)C(N)=O)C(C)C)[C@@H](C)CC [AT377] (H-EGTFISDYSIAMDRIK([AEEA-AEEA-γGlu-C18 diacid])QQDFVNWLLAQR-NH2; N-terminus assumed) | 90 |  |  |  | 100 | No Agonism | 0 |  | 19 |  |  |  |  | 
